Literature values as cited in paper PMC11859340, “The Therapeutic Potential of Spirooxindoles in Cancer: A Focus on p53–MDM2 Modulation” (Pharmaceuticals, 2025).
Where two headings read alike, the source gives them in different places. Blank lines part the entries; values can stand above or below the compound they belong to.

Tests used:
HCT116 (p53^+/+) = test system: HCT116 (p53^+/+); parameters: method as in PMID 28987608; settings: MTT; read-out: IC50 against HCT116 (p53^+/+)
[1] = test system: HEK 293T (embryonic kidney non-cancer); parameters: method as in PMID 28987608; settings: MTT, read-out: IC50 against HEK 293T
MCF7 = test system: MCF7; parameters: method as in PMID 28987608; settings: MTT; read-out: IC50 against MCF7
MDA-MB-231 (breast) = test system: MDA-MB-231 (breast); parameters: method as in PMID 28987608; settings: MTT; read-out: IC50 against MDA-MB-231
HCT116 (p53^−/−) = test system: HCT116 (p53^−/−); parameters: method as in PMID 28987608; settings: MTT; read-out: IC50 against HCT116 (p53^−/−)
MDA-MB-231 “mutant p53” = test system: MDA-MB-231 “mutant p53”; parameters: method as in PMID 37731691; settings: MTT; read-out: IC50 against MDA-MB-231
MCF7 “wild p53” = test system: MCF7 “wild p53”; parameters: method as in PMID 37731691; settings: MTT; read-out: IC50 against MCF7
HeLa (cervical) [2] = test system: HeLa (cervical); parameters: method as in doi:10.31788/RJC.2023.1638506; settings: MTT; read-out: IC50 against HeLa
MCF7 (breast) [3] = test system: MCF7 (breast); parameters: method as in doi:10.31788/RJC.2023.1638506; settings: MTT; read-out: IC50 against MCF7
HeLa (cervical) [4] = test system: HeLa (cervical); parameters: method as in PMID 37935912; settings: SRB; read-out: IC50 against HeLa
MCF7 (breast) [5] = test system: MCF7 (breast); parameters: method as in PMID 26256638; settings: MTT; read-out: IC50 against MCF7
A549 (lung) [6] = test system: A549 (lung); parameters: method as in PMID 29302672; settings: at 10 μM, CCK-8
HCT116 (colon) [7] = test system: HCT116 (colon); parameters: method as in PMID 29302672; settings: at 10 μM, CCK-8
MCF7 (breast) [8] = test system: MCF7 (breast); parameters: method as in PMID 29302672; settings: at 10 μM, CCK-8
[9] = test system: p53-wild-type MCF7 (breast cancer) cell line; parameters: method as in PMID 33725632
MDA-MB-231 = test system: MDA-MB-231; parameters: method as in doi:10.3390/separations10040225; settings: MTT; read-out: IC50 against MDA-MB-231
PC3 = test system: PC3; parameters: method as in doi:10.3390/separations10040225; settings: MTT; read-out: IC50 against PC3
HCT116 (colon) [10] = test system: HCT116 (colon); parameters: method as in PMID 30508794; settings: MTT; read-out: IC50 against HCT116
HepG2 (liver) = test system: HepG2 (liver); parameters: method as in PMID 30508794; settings: MTT; read-out: IC50 against HepG2
[11] = parameters: method as in PMID 30508794; settings: MTT; read-out: IC50 against PC3
[12] = test system: MCF7 (breast) cancer cell line; parameters: method as in doi:10.1016/j.molstruc.2023.137026; settings: MCF7, at 25 μg/mL
[13] = test system: HEK293T (embryonic kidney); parameters: method as in doi:10.1080/10426507.2020.1723590; settings: MTT; read-out: IC50 against HEK293T
A549 (lung) [14] = test system: A549 (lung); parameters: method as in doi:10.1080/10426507.2020.1723590; settings: MTT; read-out: IC50 against A549

IC50 (HCT116 (p53^+/+)): 16.3 ± 0.2 µM
IC50 [1]: > 100 µM
IC50 (MCF7): 9.8 ± 1.5 µM
IC50 (MDA-MB-231 (breast)): 8.9 ± 1.9 µM
IC50 (HCT116 (p53^−/−)): 17.9 ± 0.6 µM
SMILES: O=C1Nc2ccc(Cl)cc2C12N(c1ccccc1)N=C(c1ccccc1)N2c1cccc(Cl)c1 (centres unmarked)

SMILES: O=C1N(CCn2cc(CO)nn2)c2cc(Br)ccc2[C@]12[C@@H](c1ccccc1)C(c1ccccc1)=NN2c1ccccc1 [101 (X = (CH2)2)]
IC50 (MDA-MB-231 “mutant p53”): 9.3 µM
IC50 (MCF7 “wild p53”): 11.9 µM

SMILES: CC(C)(C)OC(=O)N1CCC(c2nc(/C=C3\CCC4(C3=O)C3CCCCN3C3(C(=O)Nc5ccccc53)C4c3csc(C4CCN(C(=O)OC(C)(C)C)CC4)n3)cs2)CC1 (centres unmarked)
IC50 (HeLa (cervical) [2]): 76.3 µM
IC50 (MCF7 (breast) [3]): 63.4 µM

SMILES: O=C1c2ccccc2OC12C(c1ccc(Cl)cc1)C1CCCCN1C21C(=O)Nc2ccccc21 (centres unmarked) [77 (R = H)]
IC50 (HeLa (cervical) [4]): 2.5 ± 0.3 µM

SMILES: CN1C[C@H](c2cccc(F)c2)[C@@H](C(=O)C2CC[C@H]3[C@@H]4CC=C5C[C@@H](O)CC[C@]5(C)[C@H]4CC[C@]23C)[C@]12C(=O)Nc1ccccc12 (some centres unmarked) [23 (R = 3-FC6H4)]
IC50 (MCF7 (breast) [5]): 4.6 ± 0.7 µM

SMILES: CC(=O)N1C(=O)[C@@]2(S[C@@H](C(=O)c3ccccc3)[C@@H](O)C[C@@H]2c2ccccc2)c2c(Br)cccc21 [compound 147]
% inhibition, A549 (A549 (lung) [6]): 70.3%
% inhibition, HCT116 (HCT116 (colon) [7]): 56.4%
% inhibition, MCF7 (MCF7 (breast) [8]): 77.6%

IC50 ([9]; absence of Fer-1): 0.17 µM
IC50 ([9]; presence of Fer-1): 13.7 µM
SMILES: Cc1noc([C@@H]2[C@@H](c3ccccc3)[C@H](C(F)(F)F)N[C@@]23C(=O)Nc2cc(Br)ccc23)c1[N+](=O)[O-]

SMILES: O=C(c1nc2ccccc2[nH]1)[C@H]1[C@H](c2cccs2)C2CC3CCCCC3N2[C@]12C(=O)Nc1ccc(Cl)cc12 (some centres unmarked) [39 (R = 2-thienyl)]
IC50 (MDA-MB-231): 3.8 ± 0.205 µM
IC50 (PC3): 4.314 ± 0.036 µM

SMILES: O=C(c1c[nH]c2ccccc12)C1C(c2ccc(C(F)(F)F)cc2)C2CSCN2C12C(=O)Nc1ccccc12 (centres unmarked) [51 (R = 4-F3CC6H4)]
IC50 (HCT116 (colon) [10]): 7 ± 0.27 µM
IC50 (HepG2 (liver)): 5.5 ± 0.2 µM
IC50 [11]: 6 ± 0.23 µM

SMILES: CCCN1C(=O)[C@]2(N[C@@H](c3ccc(F)cc3)[C@@]3(Sc4c(C(=O)C(=O)OC)c5ccccc5n4C3=O)[C@H]2C(=O)OC)c2ccc(Cl)cc21
cell viability [12]: about 80%

SMILES: CN1C[C@H](c2ccccc2Cl)[C@]2(NC(=S)N(CC34CC5CC(CC(C5)C3)C4)C2=O)[C@]12C(=O)Nc1ccc(Br)cc12 [89 (R = Br, R’ = 2-ClC6H4)]
IC50 [13]: 7.63 ± 0.75 µM
IC50 (A549 (lung) [14]): 7.2 ± 1.85 µM

IC50 ([9]; absence of Fer-1): 0.12 µM
IC50 ([9]; presence of Fer-1): 13.5 µM
SMILES: Cc1noc([C@@H]2[C@@H](c3ccccc3)[C@H](C(F)(F)F)N[C@@]23C(=O)Nc2cc(Cl)ccc23)c1[N+](=O)[O-]
